PubChem BioAssay AID1963967 (Molecular Pharmacology Branch, DTP, NCI, 2024)

System: 855422-203-R-J1-PDC spheroids with HUVEC/MSC, viability
Experiment: Anticancer human tumor 855422-203-R-J1-PDC patient-derived bladder carcinoma cell line growth inhibition [PI3K]
Conditions: for viability, T/C: stronger effect = lower value
Source text: Combinatorial screen of targeted agents with the PI3K inhibitors inavolisib, alpelisib, duvelisib, and copanlisib in multi-cell type tumor spheroids
A high-throughput screen of multi-cell type tumor spheroids was designed to identify active combinations of targeted small molecules and PI3K pathway inhibitors. Complex spheroids include a stromal component modeled by human endothelial cells (HUVEC) and fibroblasts modeled by human mesenchymal stem cells (MSCs). The concentration ranges selected for each drug and investigational agent were based upon clinically achievable concentrations if the clinical Cmax of the agent was known.
Compounds. The drugs and investigational agents: inavolisib (NSC800729), alpelisib (NSC765974), duvelisib (NSC772469), copanlisib (NSC816437), ipatasertib (NSC767898), afuresertib (NSC778305), talazoparib (NSC767125), sapanisertib (NSC764658), selumetinib (NSC741078), tovorafenib (DAY101, NSC766906), vemurafenib (NSC761431), ravoxertinib (NSC781343), sotorasib (NSC818433), MRTX1133 (NSC 836407), abemaciclib (NSC 768073), palbociclib (NSC758247), venetoclax (NSC 766270), SY5609 (NSC837396), enzalutamide (NSC755605), and darolutamide (NSC825331), were obtained from the National Cancer Institute (NCI) Developmental Therapeutics Program Chemical Repository. The FDA-approved anticancer drug set is available from the NCI Developmental Therapeutics Program. […] The stock solutions were prepared in dimethyl sulfoxide (DMSO, Sigma-Aldrich, St. Louis, MO, cat. D2650) at 800-fold the tested concentration and stored at -70 degrees C prior to their use. All drugs and investigational agents were tested over a range starting from a high concentration at or near the clinical Cmax and decreasing in half-log increments. If the clinical Cmax for an agent had not been determined, the highest concentration tested was 10 microM.
Cell Culture. All cells were maintained in an incubator at 37 degrees C and 5% CO2 with 95% humidity. The PDC lines were cultured according to standard operating procedures established by the NCI PDMR (https://pdmr.cancer.gov/sops/default.htm). All PDCs were thawed and cultured in Matrigel-coated flasks prepared with a working solution of 1X Ham's F-12 nutrient mix, without supplementation (Invitrogen, Waltham, MA, cat. 11765054), 100 U/mL penicillin-streptomycin (Invitrogen, cat. 15140122), and 2.5% Matrigel (Corning Inc., Corning, NY, cat. 354248) for the first three passages. The 354836-022-R-J1-PDC, 475296-252-R-J1-PDC, and 997726-040-R-J2-PDC lines were cultured in 6A media, which includes advanced DMEM/F-12 (Thermo Fisher Scientific, cat. 12634028), 10 mM HEPES (Thermo Fisher Scientific, cat. 15630080), 1X GlutaMAX supplement (Thermo Fisher Scientific, cat. 35050061), 0.1 mg/mL primocin (InvivoGen, San Diego, CA, cat. ant-pm-2), 10% defined fetal bovine serum, heat inactivated (HyClone Laboratories Inc., Logan, UT, cat. SH30070.03HI), 50% L-WRN conditioned media (ATCC, cat. CRL-3276), 1.25 mM N-Acetyl-L-cysteine (Sigma-Aldrich, cat. A9165), 10 mM nicotinamide (Sigma-Aldrich, cat. N0636), 1X B-27 supplement (Thermo Fisher Scientific, cat. 17504044), 1X N-2 supplement (Thermo Fisher Scientific, cat. 17502048), and 10 microM Y-27632 dihydrochloride (Tocris Bioscience, Bristol, United Kingdom, cat. 1254). The 624824-186-R-J2-PDC line was cultured in 6C/Colon 1B media, which includes all 6A media components plus 50 ng/mL human EGF recombinant protein (Thermo Fisher Scientific, cat. PHG0311). […]

[1] = curve of first compound, second compound 0.0316 µM
[2] = curve of first compound, second compound 0.1 µM
[3] = curve of first compound, second compound 0.316 µM
[4] = curve of first compound, second compound 1 µM
[5] = curve of first compound, second compound 3.16 µM
[6] = curve of first compound, second compound 10 µM
[7] = second compound 0.0316 µM, first compound 0.0316 µM
[8] = second compound 0.0316 µM, first compound 0.1 µM
[9] = second compound 0.0316 µM, first compound 0.316 µM
[10] = second compound 0.0316 µM, first compound 1 µM
[11] = second compound 0.0316 µM, first compound 3.16 µM
[12] = second compound 0.0316 µM, first compound 10 µM
[13] = second compound 0.1 µM, first compound 0.0316 µM
[14] = second compound 0.1 µM, first compound 0.1 µM
[15] = second compound 0.1 µM, first compound 0.316 µM
[16] = second compound 0.1 µM, first compound 1 µM
[17] = second compound 0.1 µM, first compound 3.16 µM
[18] = second compound 0.1 µM, first compound 10 µM
[19] = second compound 0.316 µM, first compound 0.0316 µM
[20] = second compound 0.316 µM, first compound 0.1 µM
[21] = second compound 0.316 µM, first compound 0.316 µM
[22] = second compound 0.316 µM, first compound 1 µM
[23] = second compound 0.316 µM, first compound 3.16 µM
[24] = second compound 0.316 µM, first compound 10 µM
[25] = second compound 1 µM, first compound 0.0316 µM
[26] = second compound 1 µM, first compound 0.1 µM
[27] = second compound 1 µM, first compound 0.316 µM
[28] = second compound 1 µM, first compound 1 µM
[29] = second compound 1 µM, first compound 3.16 µM
[30] = second compound 1 µM, first compound 10 µM
[31] = second compound 3.16 µM, first compound 0.0316 µM
[32] = second compound 3.16 µM, first compound 0.1 µM
[33] = second compound 3.16 µM, first compound 0.316 µM
[34] = second compound 3.16 µM, first compound 1 µM
[35] = second compound 3.16 µM, first compound 3.16 µM
[36] = second compound 3.16 µM, first compound 10 µM
[37] = second compound 10 µM, first compound 0.0316 µM
[38] = second compound 10 µM, first compound 0.1 µM
[39] = second compound 10 µM, first compound 0.316 µM
[40] = second compound 10 µM, first compound 1 µM
[41] = second compound 10 µM, first compound 3.16 µM
[42] = second compound 10 µM, first compound 10 µM
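Note: agents incubated with spheroids for one week before read-out.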
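Throughout, for viability, T/C: 100% = DMSO vehicle-treated control wells.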

CC(Nc1ncnc2nc[nH]c12)c1cc2cccc(Cl)c2c(=O)n1-c1ccccc1 (stereo not drawn)
viability, T/C (compound 0.0316 µM): 107% [middle of 8 runs]
viability, T/C (compound 0.1 µM): 108% [middle of 8 runs]
viability, T/C (compound 0.316 µM): 115% [middle of 8 runs]
viability, T/C (compound 1 µM): 107% [middle of 8 runs]
viability, T/C (compound 3.16 µM): 98.8% [middle of 8 runs]
viability, T/C (compound 10 µM): 86.2% [middle of 8 runs]
IC50 (compound alone, run of 05/09/2023): > 10000 nM

C=CC(=O)N1CCN(c2nc(=O)n(-c3c(C)ccnc3C(C)C)c3nc(-c4c(O)cccc4F)c(F)cc23)C(C)C1 (stereo not drawn) + Cc1nc(NC(=O)N2CCCC2C(N)=O)sc1-c1ccnc(C(C)(C)C(F)(F)F)c1
IC50 [1]: > 10000 nM
IC50 [2]: > 10000 nM
IC50 [3]: > 10000 nM
IC50 [4]: > 10000 nM
IC50 [5]: < 31.6 nM
IC50 [6]: < 31.6 nM
viability, T/C [7]: 111%
viability, T/C [8]: 87.8%
viability, T/C [9]: 119%
viability, T/C [10]: 104%
viability, T/C [11]: 109%
viability, T/C [12]: 128%
viability, T/C [13]: 108%
viability, T/C [14]: 86.8%
viability, T/C [15]: 106%
viability, T/C [16]: 103%
viability, T/C [17]: 117%
viability, T/C [18]: 114%
viability, T/C [19]: 94.7%
viability, T/C [20]: 87.3%
viability, T/C [21]: 104%
viability, T/C [22]: 99.5%
viability, T/C [23]: 117%
viability, T/C [24]: 109%
viability, T/C [25]: 75.9%
viability, T/C [26]: 76.1%
viability, T/C [27]: 82.6%
viability, T/C [28]: 92.5%
viability, T/C [29]: 101%
viability, T/C [30]: 97.4%
viability, T/C [31]: 50.6%
viability, T/C [32]: 50.9%
viability, T/C [33]: 58.5%
viability, T/C [34]: 64%
viability, T/C [35]: 80.4%
viability, T/C [36]: 67.9%
viability, T/C [37]: 26.9%
viability, T/C [38]: 27.1%
viability, T/C [39]: 31.5%
viability, T/C [40]: 37.2%
viability, T/C [41]: 41.2%
viability, T/C [42]: 34.2%

CC(=O)c1c(C)c2cnc(Nc3ccc(N4CCNCC4)cn3)nc2n(C2CCCC2)c1=O + CC(Nc1ncnc2nc[nH]c12)c1cc2cccc(Cl)c2c(=O)n1-c1ccccc1
IC50 [1]: > 100 nM
IC50 [2]: > 100 nM
IC50 [3]: > 100 nM
IC50 [4]: > 100 nM
IC50 [5]: > 100 nM
IC50 [6]: 65.4 nM
viability, T/C (second compound 0.0316 µM, first compound 0.000316 µM): 106%
viability, T/C (second compound 0.0316 µM, first compound 0.001 µM): 95.8%
viability, T/C (second compound 0.0316 µM, first compound 0.00316 µM): 105%
viability, T/C (second compound 0.0316 µM, first compound 0.01 µM): 93.4%
viability, T/C [7]: 100%
viability, T/C [8]: 79%
viability, T/C (second compound 0.1 µM, first compound 0.000316 µM): 111%
viability, T/C (second compound 0.1 µM, first compound 0.001 µM): 92.5%
viability, T/C (second compound 0.1 µM, first compound 0.00316 µM): 105%
viability, T/C (second compound 0.1 µM, first compound 0.01 µM): 99.8%
viability, T/C [13]: 94.4%
viability, T/C [14]: 76.2%
viability, T/C (second compound 0.316 µM, first compound 0.000316 µM): 101%
viability, T/C (second compound 0.316 µM, first compound 0.001 µM): 108%
viability, T/C (second compound 0.316 µM, first compound 0.00316 µM): 110%
viability, T/C (second compound 0.316 µM, first compound 0.01 µM): 95.3%
viability, T/C [19]: 105%
viability, T/C [20]: 81.3%
viability, T/C (second compound 1 µM, first compound 0.000316 µM): 91.9%
viability, T/C (second compound 1 µM, first compound 0.001 µM): 102%
viability, T/C (second compound 1 µM, first compound 0.00316 µM): 102%
viability, T/C (second compound 1 µM, first compound 0.01 µM): 101%
viability, T/C [25]: 95.9%
viability, T/C [26]: 73.9%
viability, T/C (second compound 3.16 µM, first compound 0.000316 µM): 98.7%
viability, T/C (second compound 3.16 µM, first compound 0.001 µM): 96.4%
viability, T/C (second compound 3.16 µM, first compound 0.00316 µM): 101%
viability, T/C (second compound 3.16 µM, first compound 0.01 µM): 93.2%
viability, T/C [31]: 85.4%
viability, T/C [32]: 54%
viability, T/C (second compound 10 µM, first compound 0.000316 µM): 84.7%
viability, T/C (second compound 10 µM, first compound 0.001 µM): 84.3%
viability, T/C (second compound 10 µM, first compound 0.00316 µM): 80%
viability, T/C (second compound 10 µM, first compound 0.01 µM): 73.9%
viability, T/C [37]: 74.3%
viability, T/C [38]: 36.9%

CC(C)NCC(C(=O)N1CCN(c2ncnc3c2C(C)CC3O)CC1)c1ccc(Cl)cc1 (stereo not drawn) + Cc1nc(NC(=O)N2CCCC2C(N)=O)sc1-c1ccnc(C(C)(C)C(F)(F)F)c1
IC50 [1]: 1360 nM
IC50 [2]: 1080 nM
IC50 [3]: 875 nM
IC50 [4]: 188 nM
IC50 [5]: < 31.6 nM
IC50 [6]: < 31.6 nM
viability, T/C [7]: 94.8%
viability, T/C [8]: 77.4%
viability, T/C [9]: 80.7%
viability, T/C [10]: 52.2%
viability, T/C [11]: 35.9%
viability, T/C [12]: 20%
viability, T/C [13]: 88.6%
viability, T/C [14]: 80.6%
viability, T/C [15]: 67.9%
viability, T/C [16]: 51.1%
viability, T/C [17]: 33.7%
viability, T/C [18]: 19.3%
viability, T/C [19]: 85.6%
viability, T/C [20]: 69%
viability, T/C [21]: 68.3%
viability, T/C [22]: 47.2%
viability, T/C [23]: 30.8%
viability, T/C [24]: 16.1%
viability, T/C [25]: 58%
viability, T/C [26]: 55%
viability, T/C [27]: 42.4%
viability, T/C [28]: 42.5%
viability, T/C [29]: 24.2%
viability, T/C [30]: 11.1%
viability, T/C [31]: 39.8%
viability, T/C [32]: 37%
viability, T/C [33]: 30.7%
viability, T/C [34]: 30.2%
viability, T/C [35]: 17.5%
viability, T/C [36]: 7.85%
viability, T/C [37]: 20.2%
viability, T/C [38]: 15.3%
viability, T/C [39]: 17.8%
viability, T/C [40]: 14.2%
viability, T/C [41]: 10.5%
viability, T/C [42]: 3.97%
